Reference: patent US20250344698A1, “A METHOD OF CONTROLLING WEEDS” (SYNGENTA CROP PROTECTION AG, priority 2022, published 2025)

System: PPO inhibitor herbicide resistant Amaranthus tuberculatus homozygous for deletion of glycine at codon 210 in PPX2L
Assay: Postemergence glasshouse test, dead or alive assessment, codon 210 deletion population
Type: in vivo
Settings: 14 days after application; for use rate at or beyond which no plants survived application: postemergence

Structure (SMILES)	Average % Survival of 16 repetitions (2 g ai/ha^−1 postemergence)	Average % Survival of 16 repetitions (4 g ai/ha^−1 postemergence)	Average % Survival of 16 repetitions (8 g ai/ha^−1 postemergence)	Average % Survival of 16 repetitions (16 g ai/ha^−1 postemergence)	Average % Survival of 16 repetitions (32 g ai/ha^−1 postemergence)	Average % Survival of 16 repetitions (64 g ai/ha^−1 postemergence)	Average % Survival of 16 repetitions (128 g ai/ha^−1 postemergence)	Average % Survival of 16 repetitions (256 g ai/ha^−1 postemergence)	use rate at or beyond which no plants survived application	Average % Survival of 16 repetitions (0.82 g ai/ha^−1 postemergence)	Average % Survival of 16 repetitions (1.64 g ai/ha^−1 postemergence)	Average % Survival of 16 repetitions (3.28 g ai/ha^−1 postemergence)	Average % Survival of 16 repetitions (6.56 g ai/ha^−1 postemergence)	Average % Survival of 16 repetitions (13.13 g ai/ha^−1 postemergence)	Average % Survival of 16 repetitions (26.25 g ai/ha^−1 postemergence)	Average % Survival of 16 repetitions (52.5 g ai/ha^−1 postemergence)	Average % Survival of 16 repetitions (105 g ai/ha^−1 postemergence)	Average % Survival of 16 repetitions (210 g ai/ha^−1 postemergence)	Average % Survival of 16 repetitions (420 g ai/ha^−1 postemergence)	Average % Survival of 16 repetitions (840 g ai/ha^−1 postemergence)
CCOC(=O)C1(C)CC(c2cc(-n3c(=O)cc(C(F)(F)F)n(C)c3=O)c(F)cc2Cl)=NO1 (stereo not drawn) [Compound 8, 3-(2-chloro-4-fluoro-5-(3-methyl-2,6-dioxo-4-trifluoromethyl-3,6-dihydropyrimidin-1(2H)-yl)phenyl)-5-methyl-4,5-dihydroisoxazole-5-carboxylic acid ethyl ester]	100%	100%	75%	12.5%	12.5%	0%	0%	0%	≥ 64 g ai/ha^−1	–	–	–	–	–	–	–	–	–	–	–
CS(=O)(=O)NC(=O)c1cc(Oc2ccc(C(F)(F)F)cc2Cl)ccc1[N+](=O)[O-] [Fomesafen]	–	–	–	–	–	–	–	–	≥ 210 g ai/ha^−1	100%	100%	100%	100%	100%	100%	81.3%	62.5%	0%	0%	0%
